Test results: patent US20240390464A1, “Treatment of Adults With Overweight or Obesity With or Without Weight-Related Comorbidities” (Carmot Therapeutics Inc., priority 2023, published 2024)
Read-outs that look alike come from different tables or passages of the source. Numbered stars: 1 amine (or outer) side, 2 acyl side, 3 side chain; on linkers, the order of the positions; unused ones are H or OH. Square brackets hold non-standard residues; d marks the D form. Side chains are listed from the residue outwards. Peptide text beside a SMILES is read from it. * marks the point of attachment. Isobutyryl(2-(3-CN-5-F-Ph)) = CC(C)(C(=O)*)c1cc(F)cc(C#N)c1; C20 diacid = O=C(O)CCCCCCCCCCCCCCCCCCC(=O)*; γGlu = O=C(O)[C@H](CCC(=O)[*:2])N[*:1]; AEEA = NCCOCCOCC(=O)O; Aib = CC(C)(N)C(=O)O; βAla = NCCC(=O)O

Legend:
[1] = chronic toxicology, repeat dosing 39 weeks; type: in vivo; conditions: monkeys
Excerpt: (§1) Thus, CT-388 can be a potent drug that induces significant weight loss and helps achieve optimal glycemic control, with acceptable tolerability, in overweight or obese adults with or without T2DM or other weight-related comorbidities. CT-388 can potentially be used as a non-invasive alternative to bariatric surgery for weight management.

[2] = Phase 1 MD Cohorts 11 and 12: pharmacokinetics; conditions: human, in vivo, SC QW
Excerpt: The secondary objectives of this study are: • To evaluate the pharmacokinetics of CT-388 across 12 consecutive weekly doses for Cohorts 11 and 14 (and additionally, up to 24 weeks for Cohorts 12 and 13); and • To evaluate the PD effect of CT-388 across 12 consecutive weekly doses for Cohorts 11 and 14 (and additionally up to 24 weeks for Cohorts 12 and 13) on body weight and glucose homeostasis in both the fasted state and in the setting of an OGTT in participants with or without T2DM. […] Cohorts 11 and 12 included participants who were obese without T2DM and cohort 13 included patients who were obese with T2DM. Endpoints of this study were safety, including TEAEs, labs, vitals and ECGs; PK, including CT-388 PK concentrations and parameters; and key PD endpoints, including week 12 ([…]) and week 24 ([…]): • a. body weight: % change; absolute change; • b. change in HbA1c, fasting glucose, fasting insulin, HOMA-IR; and • c. waist and hip circumference.

[3] = chronic toxicology, repeat dosing 26 weeks; type: in vivo; conditions: rats
Excerpt: as §1

[4] = Phase 1 SAD Cohorts 1-5: pharmacokinetics; conditions: human, in vivo; for Vd/F: read-out: Vz/F
Experimental: The secondary objectives are: • To evaluate the pharmacokinetics of single-ascending doses of CT-388 in otherwise healthy overweight and obese adult participants; and • To evaluate the pharmacodynamic (PD) effect of a single dose of CT-388 on body weight and glucose homeostasis in both the fasted state and in the setting of a mixed meal tolerance test (MMTT) challenge in otherwise healthy overweight and obese adult participants.
• Cohort 1: One dose containing 0.5 mg of CT-388 or matched placebo administered subcutaneously in the abdomen • Cohort 2: One dose containing 2.0 mg of CT-388 or matched placebo administered subcutaneously in the abdomen • Cohort 3: One dose containing 5.0 mg of CT-388 or matched placebo administered subcutaneously in the abdomen • Cohort 4: One dose containing 7.5 mg of CT-388 or matched placebo administered subcutaneously in the abdomen • Cohort 5: One dose containing 6.0 mg of CT-388 or matched placebo administered subcutaneously in the abdomen
Time-concentration profiles following a single dose SC administration of CT-388 to participants in Cohort 1 (0.5 mg), Cohort 2 (2 mg), Cohort 3 (5 mg), Cohort 4 (7.5 mg) and Cohort 5 (6 mg) are shown in Table 8 below.

[5] = Cohort 1, single SC dose 0.5 mg, mean ± standard deviation
[6] = Cohort 2, single SC dose 2 mg, mean ± standard deviation
[7] = Cohort 3, single SC dose 5 mg, mean ± standard deviation
[8] = Cohort 4, single SC dose 7.5 mg, mean ± standard deviation
[9] = Cohort 5, single SC dose 6 mg, mean ± standard deviation

For `CC[C@H](C)[C@H](NC(=O)[C@H](CC(C)C)NC(=O)[C@H](Cc1c[nH]c2ccccc12)NC(=O)[C@H](CCC(N)=O)NC(=O)[C@@H](NC(=O)[C@H](Cc1ccccc1)NC(=O)[C@H](C)NC(=O)[C@H](CCCCNC(=O)COCCOCCNC(=O)COCCOCCNC(=O)CC[C@H](NC(=O)CCCCCCCCCCCCCCCCCCC(=O)O)C(=O)O)NC(=O)[C@H](CCC(N)=O)NC(=O)[C@H](C)NC(=O)[C@@H](NC(=O)[C@H](CCCCN)NC(=O)[C@H](CC(=O)O)NC(=O)[C@H](CC(C)C)NC(=O)C(C)(C)NC(=O)[C@@H](NC(=O)[C@H](CO)NC(=O)[C@H](Cc1ccc(O)cc1)NC(=O)[C@H](CC(=O)O)NC(=O)[C@H](CO)NC(=O)[C@@H](NC(=O)[C@H](Cc1ccccc1)NC(=O)[C@@H](NC(=O)CNC(=O)[C@H](CCC(=O)O)NC(=O)CCNC(=O)C(C)(C)c1cc(F)cc(C#N)c1)[C@@H](C)O)[C@@H](C)O)[C@@H](C)CC)[C@@H](C)CC)C(C)C)C(=O)N[C@@H](C)C(=O)NCC(=O)NCC(=O)N1CCC[C@H]1C(=O)N[C@@H](CO)C(=O)N[C@@H](CO)C(=O)NCC(=O)N[C@@H](C)C(=O)N1CCC[C@H]1C(=O)N1CCC[C@H]1C(=O)N1CCC[C@H]1C(=O)N[C@@H](CO)C(N)=O` [CT-388] ({Isobutyryl(2-(3-CN-5-F-Ph))-βAla}-EGTFTSDYSI[Aib]LDKIAQK([AEEA-AEEA-γGlu-C20 diacid])AFVQWLIAGGPSSGAPPPS-NH2), the “tolerated dosing exceeds the pharmacologically active dose” value ([1]; 39-weeks) was 100 fold, the “tolerability, chronic toxicology” value ([1]; repeat dosing over 39-weeks) was “well tolerated” and the half-life [2] was roughly 6.25 days. For the same molecule, the “tolerated dosing exceeds the pharmacologically active dose” value ([3]; 26-weeks) was 100 fold, the “tolerability, chronic toxicology” value ([3]; repeat dosing over 26-weeks) was “well tolerated” and the AUC(0-inf) [4, 5] was 12900 ± 1090 ng·h/mL. For the same molecule, the CL/F [4, 5] was 0.65 mL/min, the Cmax [4, 5] was 52.4 ± 10 ng/mL and the MRT last [4, 5] was 128 ± 8.2 h. The Vd/F [4, 5] was 5.8 ± 0.7 L, the half-life ([4]; Cohort 1, single SC dose 0.5 mg, range of minimum to maximum, read-out: t1/2 range) was 3.83 to 7.11 days and the AUC(0-inf) [4, 6] was 47400 ± 10600 ng·h/mL. For the same molecule, the CL/F [4, 6] was 0.733 mL/min, the Cmax [4, 6] was 216 ± 51.4 ng/mL and the MRT last [4, 6] was 122 ± 5.6 h. For the same molecule, the Vd/F [4, 6] was 7.7 ± 1.8 L, the half-life ([4]; Cohort 2, single SC dose 2 mg, range of minimum to maximum, read-out: t1/2 range) was 4.52 to 5.92 days and the CL/F ([4]; Cohort 3, single SC dose 5 mg, mean) was 0.64 mL/min. The AUC(0-inf) [4, 7] was 140000 ± 41700 ng·h/mL, the Cmax [4, 7] was 831 ± 263 ng/mL and the MRT last [4, 7] was 114 ± 2.3 h. For the same molecule, the Vd/F [4, 7] was 6.8 ± 2.1 L, the half-life ([4]; Cohort 3, single SC dose 5 mg, range of minimum to maximum, read-out: t1/2 range) was 4.49 to 6.09 days and the CL/F ([4]; Cohort 4, single SC dose 7.5 mg, mean) was 0.547 mL/min. The AUC(0-inf) [4, 8] was 235000 ± 39000 ng·h/mL, the Cmax [4, 8] was 1160 ± 110 ng/mL and the MRT last [4, 8] was 119 ± 5.3 h. It also gave a Vd/F [4, 8] of 6.6 ± 1.3 L, a half-life ([4]; Cohort 4, single SC dose 7.5 mg, range of minimum to maximum, read-out: t1/2 range) of 4.88 to 6.3 days and an AUC(0-inf) [4, 9] of 100000 ± 15000 ng·h/mL. The CL/F [4, 9] was 0.99 mL/min, the Cmax [4, 9] was 552 ± 80.1 ng/mL and the MRT last [4, 9] was 122 ± 9.6 h. It also gave a Vd/F [4, 9] of 11 ± 1.2 L, a half-life ([4]; Cohort 5, single SC dose 6 mg, range of minimum to maximum, read-out: t1/2 range) of 4.23 to 5.88 days and a Tmax ([4]; SAD Cohorts 1-5, single SC dose, all except two individual cases) greater than 24 h. The half-life ([4]; SAD Cohorts 1-5, single SC dose, read-out: t1/2 (median) (converted)) was roughly 5 days.
